This is an account of results in patent publication US9730455B2, “Composition comprising a biological control agent and an insecticide” (Bayer CropScience AG, priority 2012, dated 2017).

In general, mortality refers to the percentage killed.

What all share (format): in vivo
The test system of series [1] is fall armyworm larvae (Spodoptera frugiperda). In words: Spodoptera frugiperda - spray test. The settings on record: maize leaf sections; for mortality at 3.75 g/ha: 3.75 g ai/ha. The method, then: (§1) Formula for the efficacy of the combination of two compounds • The expected efficacy of a given combination of two compounds is calculated as follows (see Colby, S.R., “Calculating Synergistic and antagonistic Responses of Herbicide Combinations”, Weeds 15, pp. 20-22, 1967): • If • X is the efficacy expressed in % mortality of the untreated control for test compound A at a concentration of m ppm respectively m g/ha, • Y is the efficacy expressed in % mortality of the untreated control for test compound B at a concentration of n ppm respectively n g/ha, • E is the efficacy expressed in % mortality of the untreated control using the mixture of A and B at m and n ppm respectively m and n g/ha, • then is
(§2) • Solvent: 78.0 parts by weight acetone • 1.5 parts by weight dimethylformamide • Emulsifier: alkylaryl polyglycol ether
(§3) To produce a suitable preparation of active compound, 1 part by weight of active compound is mixed with the stated amount of solvents and is diluted with water, containing an emulsifier concentration of 1000 ppm, to the desired concentration. To produce a suitable preparation of a spore suspension the spores are diluted with emulsifier containing water to the desired concentration. Further test concentrations are prepared by dilution with emulsifier containing water.
Maize (Zea mais) leaf sections are sprayed with a preparation of the active ingredient of the desired concentration. Once dry, the leaf sections are infested with fall armyworm larvae (Spodoptera frugiperda).
After the specified period of time, mortality in % is determined. 100% means all caterpillars have been killed and 0% means none of the caterpillars have been killed. The mortality values determined thus are recalculated using the Colby-formula (see sheet 1).

Series [2] concerns mustard beetle larvae (Phaedon cochleariae). In words: Phaedon cochleariae - spray test. Particulars: foliar; for mortality at 0.8 g/ha: 0.8 g ai/ha, after 6 d. The method, then:
as §1
• Solvent: 78.0 parts by weight of acetone • 1.5 parts by weight of dimethylformamide • Emulsifier: alkylaryl polyglycol ether
as §3
Chinese cabbage (Brassica pekinensis) leaf-disks are sprayed with a preparation of the active ingredient of the desired concentration. Once dry, the leaf disks are infested with mustard beetle larvae (Phaedon cochleariae).
After the specified period of time, mortality in % is determined. 100% means all beetle larvae have been killed and 0% means none of the beetle larvae have been killed. The mortality values determined thus are recalculated using the Colby-formula (see sheet 1).

The test system of series [3] is two spotted spidermite (Tetranychus urticae), OP-resistant. In words: Tetranychus urticae - spray test, OP-resistant. The settings on record: French beans. The method, then: as §1, §2, §3
French beans (Phaseolus vulgaris) which are heavily infested with all stages of the two spotted spidermite (Tetranychus urticae), are sprayed with a preparation of the active ingredient of the desired concentration.
After the specified period of time, mortality in % is determined. 100% means all spider mites have been killed and 0% means none of the spider mites have been killed. The mortality values determined thus are recalculated using the Colby-formula (see sheet 1).

Series [4] relates to green peach aphid (Myzus persicae). The experiment in a line: Myzus persicae - spray test. The settings on record: foliar, 24 h, after 1 d, Chinese cabbage leaf disks, read-out: Efficacy in % after 1^d (mortality). Here is the method:
as §1, §2
To produce a suitable preparation of active compound, 1 part by weight of active compound is mixed with the stated amount of solvents and is diluted with water, containing an emulsifier concentration of 1000 ppm, to the desired concentration. To produce a suitable preparation of a spore suspension the spores are diluted with emulsifier containing water to the desired concentration. […]
After the specified period of time, mortality in % is determined. […] The mortality values determined thus are recalculated using the Colby-formula (see sheet 1).

[5] abbreviates: 144 h, Chinese cabbage leaf disks, read-out: Efficacy in % after 6^d (mortality).

Read-outs that look alike come from different tables or passages of the source.

In the case of `CNC(=O)c1cc(Cl)cc(C)c1NC(=O)c1cc(Br)nn1-c1ncccc1Cl` [Chlorantraniliprole], the mortality at 0.8 g/ha stood at 67% in series [1] (Spodoptera frugiperda, 48 h, 0.8 g ai/ha, after 2 d, read-out: Efficacy in % after 2^d (mortality)) and 33% in series [2] (setting [5]). In series [1] (Spodoptera frugiperda, 144 h, 0.16 g ai/ha, after 6 d, read-out: Efficacy in % after 6^d (mortality)), the mortality at 0.16 g/ha is 0%.

For the compound `CN/C(=N\[N+](=O)[O-])NCc1cnc(Cl)s1` [Clothianidin], the mortality at 20 g/ha in series [1] (Spodoptera frugiperda, 144 h, 20 g ai/ha, after 6 d, read-out: Efficacy in % after 6^d (mortality)) came to 0%.

Turning to `CNC(=O)c1cc(C#N)cc(C)c1NC(=O)c1cc(Br)nn1-c1ncccc1Cl` [Cyantraniliprole], the mortality at 4 g/ha in series [2] (48 h, 4 g ai/ha, after 2 d, Chinese cabbage leaf disks, read-out: Efficacy in % after 2^d (mortality)) worked out at 0%. Also, the mortality at 0.8 g/ha in series [2] (setting [5]) amounted to 0%.

Take `CNC(=O)Oc1cc(C)c(SC)c(C)c1` [Methiocarb]: the mortality at 10 g/ha in series [2] (in Brassica rapa, 144 h, read-out: Efficacy in % after 6^d (mortality)) was determined as 50%.

`N#C/N=C1\SCCN1Cc1ccc(Cl)nc1` [Thiacloprid]: the mortality at 20 g/ha in series [3] (Tetranychus urticae, 48 h, 20 g ai/ha, after 2 d, read-out: Efficacy in % after 2^d (mortality)) was found to be 40%. Further, in series [4] (4 g ai/ha), the mortality at 4 g/ha worked out at 0%.

On to `CN1COCN(Cc2cnc(Cl)s2)/C1=N\[N+](=O)[O-]` [Thiamethoxam], for which, in series [4] (0.8 g ai/ha), the mortality at 0.8 g/ha amounted to 0%.

Consider `CS/C(C)=N\OC(=O)N(C)SN(C)C(=O)O/N=C(\C)SC` [Thiodicarb], for which the mortality at 3.75 g/ha in series [1] (Spodoptera frugiperda, 48 h, after 2 d, read-out: Efficacy in % after 2^d (mortality)) came to 0%; in series [1] (Spodoptera frugiperda, 144 h, after 6 d, read-out: Efficacy in % after 6^d (mortality)), 0%. Besides, the mortality at 7.5 g/ha in series [1] (Spodoptera frugiperda, 48 h, 7.5 g ai/ha, after 2 d, read-out: Efficacy in % after 2^d (mortality)) was found to be 67%.

Take Spinetoram: the “Efficacy in % after 6^d (mortality)” value is 0% in series [3] (0.08 g ai/ha) and 0% in series [1] (0.032 g ai/ha, after 6 d). The “Efficacy in % after 2^d (mortality)” value was 0% in series [3] (0.4 g ai/ha, after 2 d) and 67% in series [1] (0.08 g ai/ha, after 2 d).

On to Spinosad, for which the “Efficacy in % after 6^d (mortality)” value in series [3] (20 g ai/ha) was 0%; in series [1] (0.8 g ai/ha, after 6 d) it was 0%. Also, in series [1] (4 g ai/ha, after 2 d), the “Efficacy in % after 2^d (mortality)” value came to 50%.
